The nature of data set [1]: Analysis and comparison of properties: moisture. Particulars: solid forms prepared from crude ergothioneine. In kind it is physicochemical. How it is done:
(§1) X-ray diffraction (XRD), differential scanning calorimetry (DSC), elemental analysis, particle size analysis, quantitative nuclear magnetic resonance (NMR), Raman spectroscopy, infrared spectroscopy (IR), TGA, IPC-MS, DVS and other tests were carried out on the crystal forms prepared in the Examples.
(§2) Using crude ergothioneine as raw material, three crystal forms A, B and C were prepared respectively, and their properties were compared with those of amorphous ergothioneine.

Data set [2] in a line: Analysis and comparison of properties: hygroscopicity. The format is physicochemical. As to conditions: solid forms prepared from crude ergothioneine. The procedure: as §1, §2
Where [3] appears, read: listed as amorphous ergothioneine.

Molecules are shown by their SMILES.

As to `C[N+](C)(C)[C@@H](Cc1c[nH]c(=S)[nH]1)C(=O)[O-]` [Crystal form A, ergothioneine], the “Moisture (%)” value in data set [1] is reported as 0.07%. Besides, the Hygroscopicity result in data set [2] is “Stable”.

For the compound `C[N+](C)(C)[C@@H](Cc1c[nH]c(=S)[nH]1)C(=O)[O-]` [Crystal form C, ergothioneine], in data set [1], the “Moisture (%)” value came out at 0.09%. Further, the Hygroscopicity entry in data set [2] is reported as “Stable”.

For `C[N+](C)(C)[C@@H](Cc1c[nH]c(=S)[nH]1)C(=O)[O-]` [Amorphous, ergothioneine], the “Moisture (%)” value in data set [1] and in data set [1] (setting [3]) was 1.29% each time. The Hygroscopicity result in data set [2] is on record as “Easily”; in data set [2] (setting [3]), “strong hygroscopicity”.

For `C[N+](C)(C)[C@@H](Cc1c[nH]c(=S)[nH]1)C(=O)[O-]` [Crystal form B, ergothioneine], the “Moisture (%)” value in data set [1] was 0.10%. In addition, the Hygroscopicity entry in data set [2] is reported as “Stable”.

The values are drawn from patent US20260085049A1, “CRYSTAL FORM OF ERGOTHIONEINE” (NANJING NUTRABUILDING BIO-TECH CO., LTD., priority 2023, published 2026).
